Results as given in patent US20170014354A1, “ZEAXANTHIN FOR TUMOR TREATMENT” (The New York Eye and Ear Infirmary, priority 2012, published 2017).

Assays:
MCF-7 = assay: MTT cell viability, MCF-7 breast cancer; format: cell-based; conditions: for Cell viability: 48 h, MTT, vs control
Description: (§1) Each malignant tumor cell line was cultured in Dulbecco's modified Eagle's medium (DMEM, GIBCO, Carlsbad, Calif.) supplemented with 10% fetal bovine serum (FBS, GIBCO). Cells were incubated in a humidified 5% CO2 atmosphere at 37° C. After reaching confluence, cells were detached by trypsin-EDTA solution (GIBCO), diluted 1:4-1:6, plated for subculture and were passaged routinely at a dilution of 1:4-1:6 every 4-6 days.
(§2) All cell lines were tested in triplicates.

malignant hepatic tumor = assay: Treatment of a patient with recurred malignant hepatic tumor; format: in vivo, human; conditions: one patient
Description: In this example, zeaxanthin was used to treat a patient with malignant hepatic tumor. […] The tumor recurred in a few months in the patient after resection. The patient was then treated with zeaxanthin in view of the extensive and safe use of zeaxanthin as a supplement of the treatment of macular disorders.
In treating the recurred malignant hepatic tumor in the patient, we prescribed a dose of 80 mg/day of zeaxanthin which was used to supplement their conventional treatment of Avastin® infusion. […] The patient's condition continued to improve under the combination therapy of zeaxanthin and Avastin® infusion in the next 9 months. The patient was able to resume their social life during the period of 9 months and then passed away after 2 months. The patient's life was prolonged more than 1 year following their projected mortality under the conventional Avastin® infusion treatment on the recurring malignant hepatic tumor.
Therefore, a dosage of about 1.2 mg/kg/d of zeaxanthin was sufficient to help reducing tumor cell viability in the patient under the combination therapy.

HeLa = assay: MTT cell viability, HeLa cervix cancer; format: cell-based; conditions: 48 h, vs control
Description: as §1, §2

A549 = assay: MTT cell viability, A549 lung cancer; format: cell-based; conditions: for Cell viability: 48 h, MTT, vs control
Description: as §1, §2

SCC1 = assay: MTT cell viability, SCC1 cutaneous squamous carcinoma; format: cell-based; conditions: 48 h, vs control
Description: as §1, §2

OCM2 = assay: MTT cell viability, OCM2 uveal melanoma; format: cell-based; conditions: 48 h, vs control
Description: as §1, §2

BC-1 = assay: MTT cell viability, BC-1 lymphoma; format: cell-based; conditions: for Cell viability: 48 h, MTT, vs control
Description: as §1, §2

M17 = assay: MTT cell viability, M17 uveal melanoma; format: cell-based, human; conditions: 48 h, vs control
Description: as §1, §2

PANC-1 = assay: MTT cell viability, PANC-1 pancreatic cancer; format: cell-based; conditions: for Cell viability: 48 h, MTT, vs control
Description: as §1, §2

OS143 = assay: MTT cell viability, OS143 osteosarcoma; format: cell-based; conditions: 48 h, vs control
Description: as §1, §2

C918 = assay: MTT cell viability, C918 uveal melanoma; format: cell-based; conditions: vs control; for Cell viability: 48 h, MTT; for reduction of cell viabilities: FIG. 1C
Description: as §1, §2

LoVo = assay: MTT cell viability, LoVo colon cancer; format: cell-based; conditions: 48 h, vs control
Description: as §1, §2

A375 = assay: MTT cell viability, A375 cutaneous melanoma; format: cell-based; conditions: 48 h, vs control
Description: as §1, §2

PC-3 = assay: MTT cell viability, PC-3 prostate cancer; format: cell-based; conditions: 48 h, vs control
Description: as §1, §2

NCI-H358 = assay: MTT cell viability, NCI-H358 lung cancer; format: cell-based; conditions: 48 h, vs control
Description: as §1, §2

HCT-15 = assay: MTT cell viability, HCT-15 colon cancer; format: cell-based; conditions: 48 h, vs control
Description: as §1, §2

NCI-H1755 = assay: MTT cell viability, NCI-H1755 lung cancer; format: cell-based; conditions: for Cell viability: 48 h, MTT, vs control
Description: as §1, §2

SP6.5 = assay: MTT cell viability, SP6.5 uveal melanoma; format: cell-based; conditions: vs control; for Cell viability: 48 h, MTT; for reduction of cell viabilities: FIG. 1B
Description: as §1, §2

DU-145 = assay: MTT cell viability, DU-145 prostate cancer; format: cell-based; conditions: 48 h, vs control
Description: as §1, §2

CC1=C(/C=C/C(C)=C/C=C/C(C)=C/C=C/C=C(C)/C=C/C=C(C)/C=C/C2=C(C)C[C@@H](O)CC2(C)C)C(C)(C)C[C@H](O)C1 [zeaxanthin]
Cell viability (MCF-7; MCF-7, 10 μM zeaxanthin): 86 ± 4.0%
Cell viability (MCF-7; MCF-7, 30 μM zeaxanthin): 73 ± 8.3%
Cell viability (MCF-7; MCF-7, 100 μM zeaxanthin): 52 ± 2.4%
final concentration at which cell viability decreased significantly (MCF-7; MCF-7, vs cells without zeaxanthin): ≥ 30 µM
MRI scans of multiple recurrent hepatic tumors (malignant hepatic tumor; 80 mg/day zeaxanthin supplementing Avastin infusion, after several months): began to shrink significantly to the point of where the tumors could not be detected
prolongation of life beyond projected mortality under conventional Avastin infusion (malignant hepatic tumor; 80 mg/day zeaxanthin with Avastin infusion): more than 1 year
Cell viability (HeLa; 10 μM zeaxanthin): 66 ± 3.3%
Cell viability (HeLa; 30 μM zeaxanthin): 46 ± 1.6%
Cell viability (HeLa; 100 μM zeaxanthin): 7.9 ± 2.0%
Cell viability (A549; A549, 10 μM zeaxanthin): 94 ± 6.6%
Cell viability (A549; A549, 30 μM zeaxanthin): 86 ± 4.4%
Cell viability (A549; A549, 100 μM zeaxanthin): 67 ± 6.1%
final concentration at which cell viability decreased significantly (A549; A549, vs cells without zeaxanthin): ≥ 100 µM
Cell viability (SCC1; SCC1, 10 μM zeaxanthin): 80 ± 3.5%
Cell viability (SCC1; SCC1, 30 μM zeaxanthin): 65 ± 2.9%
Cell viability (SCC1; SCC1, 100 μM zeaxanthin): 13 ± 1.4%
Cell viability (OCM2; OCM2, 10 μM zeaxanthin): 90 ± 4.9%
Cell viability (OCM2; OCM2, 30 μM zeaxanthin): 70 ± 2.1%
Cell viability (OCM2; OCM2, 100 μM zeaxanthin): 46 ± 2.0%
Cell viability (BC-1; BC-1, 10 μM zeaxanthin): 79 ± 8.2%
Cell viability (BC-1; BC-1, 30 μM zeaxanthin): 67 ± 11%
Cell viability (BC-1; BC-1, 100 μM zeaxanthin): 69 ± 7.1%
final concentration at which cell viability decreased significantly (BC-1; BC-1, vs cells without zeaxanthin): ≥ 30 µM
Cell viability (M17; M17, 10 μM zeaxanthin): 84 ± 3.9%
Cell viability (M17; M17, 30 μM zeaxanthin): 69 ± 2.5%
Cell viability (M17; M17, 100 μM zeaxanthin): 41 ± 1.0%
final concentration at which cell viability decreased significantly (PANC-1; PANC, vs cells without zeaxanthin): ≥ 100 µM
Cell viability (PANC-1; PANC-1, 10 μM zeaxanthin): 101 ± 6.0%
Cell viability (PANC-1; PANC-1, 30 μM zeaxanthin): 98 ± 5.5%
Cell viability (PANC-1; PANC-1, 100 μM zeaxanthin): 76 ± 5.1%
Cell viability (OS143; OS143, 10 μM zeaxanthin): 82 ± 5.0%
Cell viability (OS143; OS143, 30 μM zeaxanthin): 78 ± 3.4%
Cell viability (OS143; OS143, 100 μM zeaxanthin): 42 ± 1.3%
Cell viability (C918; C918, 10 μM zeaxanthin): 79 ± 4.1%
reduction of cell viabilities (C918; C918, 10 μM zeaxanthin): about 21%
Cell viability (C918; C918, 30 μM zeaxanthin): 48 ± 2.6%
reduction of cell viabilities (C918; C918, 30 μM zeaxanthin): ~52%
Cell viability (C918; C918, 100 μM zeaxanthin): 12 ± 1.0%
reduction of cell viabilities (C918; C918, 100 μM zeaxanthin): ~88%
Cell viability (LoVo; 10 μM zeaxanthin): 76 ± 3.8%
Cell viability (LoVo; 30 μM zeaxanthin): 51 ± 2.5%
Cell viability (LoVo; 100 μM zeaxanthin): 32 ± 1.6%
Cell viability (A375; A375, 10 μM zeaxanthin): 62 ± 2.7%
Cell viability (A375; A375, 30 μM zeaxanthin): 41 ± 2.7%
Cell viability (A375; A375, 100 μM zeaxanthin): 6%
Cell viability (PC-3; PC-3, 10 μM zeaxanthin): 74 ± 4.4%
Cell viability (PC-3; PC-3, 30 μM zeaxanthin): 62 ± 3.2%
Cell viability (PC-3; PC-3, 100 μM zeaxanthin): 39 ± 2.6%
Cell viability (NCI-H358; NCI-H358, 10 μM zeaxanthin): 80 ± 3.5%
Cell viability (NCI-H358; NCI-H358, 30 μM zeaxanthin): 65 ± 3.0%
Cell viability (NCI-H358; NCI-H358, 100 μM zeaxanthin): 37 ± 1.3%
Cell viability (HCT-15; HCT-15, 10 μM zeaxanthin): 62 ± 3.4%
Cell viability (HCT-15; HCT-15, 30 μM zeaxanthin): 46 ± 2.4%
Cell viability (HCT-15; HCT-15, 100 μM zeaxanthin): 12 ± 1.3%
Cell viability (NCI-H1755; NCI-H1755, 10 μM zeaxanthin): 86 ± 6.7%
Cell viability (NCI-H1755; NCI-H1755, 30 μM zeaxanthin): 81 ± 4.5%
Cell viability (NCI-H1755; NCI-H1755, 100 μM zeaxanthin): 81 ± 90%
final concentration at which cell viability decreased significantly (NCI-H1755; NCI-H1755, vs cells without zeaxanthin): ≥ 30 µM
Cell viability (SP6.5; SP6.5, 10 μM zeaxanthin): 86 ± 4.3%
reduction of cell viabilities (SP6.5; SP6.5, 10 μM zeaxanthin): about 14%
Cell viability (SP6.5; SP6.5, 30 μM zeaxanthin): 64 ± 1.7%
reduction of cell viabilities (SP6.5; SP6.5, 30 μM zeaxanthin): ~36%
Cell viability (SP6.5; SP6.5, 100 μM zeaxanthin): 42 ± 2.2%
reduction of cell viabilities (SP6.5; SP6.5, 100 μM zeaxanthin): ~58%
Cell viability (DU-145; DU-145, 10 μM zeaxanthin): 78 ± 5.0%
Cell viability (DU-145; DU-145, 30 μM zeaxanthin): 65 ± 5.5%
